For the assay, the target named is T1, E-selectin/IgG construct (Homo sapiens, UniProt P16581).
T1 construct: fused on or other part: IgG Fc part (human, since it is captured by goat anti-human Fc antibody), fused on as a capture handle
T1 sequence (P16581 22-175 limits assumed): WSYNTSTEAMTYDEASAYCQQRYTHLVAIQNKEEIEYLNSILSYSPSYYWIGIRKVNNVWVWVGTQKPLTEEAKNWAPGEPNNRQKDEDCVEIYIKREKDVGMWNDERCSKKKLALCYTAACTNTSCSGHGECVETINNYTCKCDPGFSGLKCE
The assay is described as follows: BIAcore surface plasmon resonance (SPR)-based assay, serial dilutions of the ligand (absolute KD). Particulars: twofold serial dilutions, 600 s association/600 s dissociation, HBS-P + 20 mm calcium + DMSO 5% v/v, read-out: KD values (absolute binding affinities). As for the experimental part: The biological evaluation of the E-selectin antagonists was performed by surface plasmon resonance (SPR). For this purpose, an E-selectin/IgG construct was captured onto a BIAcore chip surface bearing covalently linked goat anti-human Fc specific antibody (Biacore Life Sciences, Uppsala, Sweden).
Evaluation of E-Selectin Antagonists with Surface Plasmon Resonance (SPR)-Based Assay
Ten twofold serial dilutions of the ligand were non-randomly injected. The E-selectin antagonists were diluted in running buffer (HBS-P supplemented with […] calcium and DMSO 5% v/v). Antagonist dilutions were injected with a 600 s association time and 600 s dissociation time at a flow rate of 20 μL/min over the reference and the active flow cell. […] In addition, to prevent the presence of residual traces of compound, a blank injection was performed between each injection of ligand dilution. DMSO calibration and double referencing were applied to correct bulk effects and other systematic artifacts (subtraction of reference surface and blank injection).
On the technique in general: Surface plasmon resonance follows binding to a sensor surface in real time, without labels.

The values that follow come from US8921328B2, “E-selectin antagonists” (GlycoMimetics, Inc., priority 2010, dated 2014).

Broadly, the Kd is the constant that tells how readily two partners part at equilibrium. Turning to `CC1CC(C(=O)NCCCN2CCN(CCCn3ccc4cc([N+](=O)[O-])ccc43)CC2)C[C@@H](O[C@@H]2OC(CO)[C@H](O)C(O[C@@H](CC3CCCCC3)C(=O)O)C2OC(=O)c2ccccc2)C1O[C@@H]1OC(C)[C@@H](O)C(O)C1O` (stereo partly drawn) [Product 82, (1R,3R,4R,5S)-3-[2-O-Benzoyl-3-O-((1S)-1-carboxy-2-cyclohexyl-ethyl)-(β-D-galactopyranosyl)oxy]-4-[(α-L-fucopyranosyl)oxy]-5-methyl-N-(3-{1-[3-(5-nitro-1H-indol-1-yl)propyl]piperazin-1-yl}propyl)cyclohexanecarboxamide], the Kd turned out to be 110 nM.
